From PubChem BioAssay (NCI) come the findings set out here.

Among the test systems are U251 CNS; TK-10 renal; NCI-H460 lung; SN12C renal; HT29 colon; OVCAR-4 ovarian; SNB-19 CNS; UACC-257 melanoma.
Common to all, as to test: DTP human tumour cell line panel, 48 h

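Five concentrations, 48 hours, 96-well plates. At the GI50, growth is halved. TGI denotes the concentration required for complete inhibition of growth.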

A word on the TGI: it is the concentration giving total growth inhibition. Read a high TGI as lower sensitivity of the cells. `COc1ccc(-c2cc(C(=O)Nc3ccc(C)c(C)c3)nc(NC#N)n2)cc1`: the TGI with U251 CNS, in the assay on TK-10 renal, with NCI-H460 lung, with SN12C renal, with HT29 colon and with OVCAR-4 ovarian was over 100 µM throughout. For the same compound, the total growth inhibition concentration (TGI) with SNB-19 CNS and with UACC-257 melanoma was over 100 µM throughout.

As to `NC(=O)c1csc(C2OC(COP(=O)(O)CP(=O)(O)OCC3OC(n4cnc5c(N)ncnc54)C(O)C3O)C(O)C2O)n1` (centres undefined), the TGI in the assay on U251 CNS, in the assay with TK-10 renal, with NCI-H460 lung, with SN12C renal, in the assay on HT29 colon and in the assay on OVCAR-4 ovarian was over 100 µM each time. Besides, the concentration for total growth inhibition (TGI) with SNB-19 CNS and with UACC-257 melanoma was over 100 µM throughout.

Regarding `N#CC(C#N)c1ccc(C(=O)N2CCC[C@H]2CO)cc1`, the TGI in the assay with U251 CNS, in the assay on TK-10 renal, in the assay on NCI-H460 lung, with SN12C renal, with HT29 colon and in the assay on OVCAR-4 ovarian was over 100 µM each time. Also, the total growth inhibition concentration (TGI) in the assay with SNB-19 CNS and in the assay on UACC-257 melanoma was over 100 µM throughout.

What is called GI50 is the concentration at which growth is held to half of that of the control. For `C=C1CCC2[C@@H](CCC3[C@]2(C)CCC[C@]3(C)C(=O)OC)C1CC=O` (some centres undefined), the GI50 was 17.8 µM in the assay with U251 CNS, 13.2 µM in the assay with TK-10 renal and 18.2 µM in the assay on SNB-19 CNS. Also, the TGI with U251 CNS came out at 33.5 µM; in the assay with TK-10 renal, 26.6 µM; in the assay on NCI-H460 lung it was 31.7 µM; in the assay with SN12C renal, 36.7 µM; in the assay on HT29 colon, 30.8 µM; with OVCAR-4 ovarian, 32 µM. The concentration for total growth inhibition (TGI) came to 33.1 µM with SNB-19 CNS and 31 µM with UACC-257 melanoma.

`CC12CCC(=O)N1c1ccc([N+](=O)[O-])cc1N2` (centres undefined): the TGI with U251 CNS, in the assay with SN12C renal, in the assay with HT29 colon, with OVCAR-4 ovarian, in the assay with SNB-19 CNS and in the assay with UACC-257 melanoma was over 100 µM throughout.

`O=C(CC1SC(=Nc2ccccc2Cl)NC1=O)Nc1ccc(Cl)cc1Cl` (centres undefined): the total growth inhibition concentration (TGI) in the assay with U251 CNS, with TK-10 renal, in the assay on NCI-H460 lung, in the assay on SN12C renal, with HT29 colon and in the assay with OVCAR-4 ovarian was over 100 µM each time. The concentration for total growth inhibition (TGI) with SNB-19 CNS and in the assay on UACC-257 melanoma was over 100 µM in each case.

As to `CCOC(=O)/C(C#N)=C(O)/C(=C\c1ccc(Br)cc1)NC(=O)c1ccccc1`, the TGI with U251 CNS, in the assay on TK-10 renal, in the assay with NCI-H460 lung, with SN12C renal, with HT29 colon and with OVCAR-4 ovarian was over 100 µM each time. Moreover, the concentration for total growth inhibition (TGI) with SNB-19 CNS and with UACC-257 melanoma was over 100 µM throughout.

For `O=S(=O)(c1cccc(N=C=S)c1)c1cccc(N=C=S)c1`, the concentration for total growth inhibition (TGI) in the assay with U251 CNS is 35.4 µM; in the assay on TK-10 renal it was 40 µM; in the assay with SN12C renal, 37.7 µM; with SNB-19 CNS, over 100 µM; in the assay on UACC-257 melanoma, 38.5 µM.

`N#Cc1ccc(C=NC23CC4CC(CC(C4)C2)C3)cc1`: the TGI in the assay with U251 CNS, in the assay with TK-10 renal, with NCI-H460 lung, in the assay on SN12C renal, in the assay on HT29 colon and in the assay with OVCAR-4 ovarian was over 100 µM in each case. Besides, the TGI in the assay on SNB-19 CNS and with UACC-257 melanoma was over 100 µM each time.

In the case of `CCCCCCCCCCCCC(Br)C(=O)NCC(N)=O` (centres undefined), the TGI amounted to 24.6 µM in the assay on U251 CNS; 34.7 µM in the assay on TK-10 renal; 34.7 µM in the assay on NCI-H460 lung; 36 µM in the assay on HT29 colon; 12.6 µM in the assay with OVCAR-4 ovarian; 24.3 µM with SNB-19 CNS. Besides, the TGI with UACC-257 melanoma worked out at 24.7 µM.

In the case of `COCOCC/C=C/C=O`, the concentration for total growth inhibition (TGI) in the assay on U251 CNS, with TK-10 renal, with NCI-H460 lung, in the assay on SN12C renal, with HT29 colon and with SNB-19 CNS was over 100 µM each time. Moreover, in the assay on UACC-257 melanoma, the TGI was over 100 µM.

As for `COCCNC(=O)C1C(=O)C(=O)N(CCOC)C1=O` (centres undefined), the total growth inhibition concentration (TGI) in the assay with U251 CNS, in the assay on TK-10 renal, in the assay on SN12C renal, with HT29 colon, in the assay with OVCAR-4 ovarian and with SNB-19 CNS was over 100 µM each time. In the assay on UACC-257 melanoma, this compound returned a TGI of over 100 µM.

For the compound `Cc1nc(C(=O)O)c2ccccc2n1`, the TGI in the assay on U251 CNS, in the assay on TK-10 renal, in the assay on NCI-H460 lung, with SN12C renal, with HT29 colon and in the assay on SNB-19 CNS was over 100 µM in each case. The compound also registered a TGI in the assay with UACC-257 melanoma of over 100 µM.

`O=C(O)/C=C/c1nc2ccccc2c(=O)o1`: the concentration for total growth inhibition (TGI) in the assay on U251 CNS, in the assay on TK-10 renal, in the assay on SN12C renal, in the assay with HT29 colon, in the assay on OVCAR-4 ovarian and with SNB-19 CNS was over 100 µM in each case.
